System: P12-Ichikawa
Test: cell viability relative to DMSO control; higher = less cytotoxic
Conditions: 48 h
Summary of the method: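 Viability is expressed as a percentage of DMSO wells within each plate, and cell-free wells serve as background. Seeding densities in the 1536-well plates (5 μl) were 500 cells/well for NOMO1 or SEM leukemia cells and 1000 cells/well for P12-Ichikawa. Each line was adapted for at least four passages in each medium. Library compounds in DMSO were pin-dosed at 47 μM to 0.79 nM (11 points, threefold), and CellTiter-Glo One luminescence was read after 48 h at 37°C.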

[1] = HPLM + 10% dialyzed FBS, 0.000781 µM
[2] = HPLM + 10% dialyzed FBS, 0.00234 µM
[3] = HPLM + 10% dialyzed FBS, 0.00702 µM
[4] = HPLM + 10% dialyzed FBS, 0.0211 µM
[5] = HPLM + 10% dialyzed FBS, 0.0632 µM
[6] = HPLM + 10% dialyzed FBS, 0.19 µM
[7] = HPLM + 10% dialyzed FBS, 0.569 µM
[8] = HPLM + 10% dialyzed FBS, 1.71 µM
[9] = HPLM + 10% dialyzed FBS, 5.12 µM
[10] = HPLM + 10% dialyzed FBS, 15.4 µM
[11] = HPLM + 10% dialyzed FBS, 46.1 µM
[12] = RPMI 5 mM glucose + 10% FBS, 0.000781 µM
[13] = RPMI 5 mM glucose + 10% FBS, 0.00234 µM
[14] = RPMI 5 mM glucose + 10% FBS, 0.00702 µM
[15] = RPMI 5 mM glucose + 10% FBS, 0.0211 µM
[16] = RPMI 5 mM glucose + 10% FBS, 0.0632 µM
[17] = RPMI 5 mM glucose + 10% FBS, 0.19 µM
[18] = RPMI 5 mM glucose + 10% FBS, 0.569 µM
[19] = RPMI 5 mM glucose + 10% FBS, 1.71 µM
[20] = RPMI 5 mM glucose + 10% FBS, 5.12 µM
[21] = RPMI 5 mM glucose + 10% FBS, 15.4 µM
[22] = RPMI 5 mM glucose + 10% FBS, 46.1 µM
[23] = RPMI 5 mM glucose + 10% dialyzed FBS, 0.000781 µM
[24] = RPMI 5 mM glucose + 10% dialyzed FBS, 0.00234 µM
[25] = RPMI 5 mM glucose + 10% dialyzed FBS, 0.00702 µM
[26] = RPMI 5 mM glucose + 10% dialyzed FBS, 0.0211 µM
[27] = RPMI 5 mM glucose + 10% dialyzed FBS, 0.0632 µM
[28] = RPMI 5 mM glucose + 10% dialyzed FBS, 0.19 µM
[29] = RPMI 5 mM glucose + 10% dialyzed FBS, 0.569 µM
[30] = RPMI 5 mM glucose + 10% dialyzed FBS, 1.71 µM
[31] = RPMI 5 mM glucose + 10% dialyzed FBS, 5.12 µM
[32] = RPMI 5 mM glucose + 10% dialyzed FBS, 15.4 µM
[33] = RPMI 5 mM glucose + 10% dialyzed FBS, 46.1 µM

Structure (SMILES)	cell viability [1] [%]	cell viability [2] [%]	cell viability [3] [%]	cell viability [4] [%]	cell viability [5] [%]	cell viability [6] [%]	cell viability [7] [%]	cell viability [8] [%]	cell viability [9] [%]	cell viability [10] [%]	cell viability [11] [%]	cell viability [12] [%]	cell viability [13] [%]	cell viability [14] [%]	cell viability [15] [%]	cell viability [16] [%]	cell viability [17] [%]	cell viability [18] [%]	cell viability [19] [%]	cell viability [20] [%]	cell viability [21] [%]	cell viability [22] [%]	cell viability [23] [%]	cell viability [24] [%]	cell viability [25] [%]	cell viability [26] [%]	cell viability [27] [%]	cell viability [28] [%]	cell viability [29] [%]	cell viability [30] [%]	cell viability [31] [%]	cell viability [32] [%]	cell viability [33] [%]
COc1cc([C@@H]2c3cc4c(cc3[C@@H](O[C@@H]3O[C@@H]5CO[C@@H](C)O[C@H]5[C@H](O)[C@H]3O)[C@H]3COC(=O)[C@H]23)OCO4)cc(OC)c1O	87.1	89.5	90.2	80.9	76.8	85.8	73.1	12.1	3.56	1.85	6.17	79.5	86.9	78.2	76	83.6	67.6	51.7	6.56	3.5	3.55	4.21	73.4	78.2	84.7	78.1	78.7	74.1	63.9	8.76	4.69	3.79	4.42
CCCCC(F)(F)[C@@]1(O)CC[C@H]2[C@@H](CC(=O)[C@@H]2CCCCCCC(=O)O)O1	128	123	120	124	122	116	117	103	108	111	113	–	–	–	–	–	–	–	–	–	–	–	–	–	–	–	–	–	–	–	–	–	–
CC1(C)CCC(=C(\C1)C2=CC=C(Cl)C=C2)/CN3CCN(CC3)C4=CC(=C(C=C4)C(=O)N[S+]([O-])(=O)C5=CC=C(NCC6CCOCC6)C(=C5)[N+]([O-])=O)OC7=CN=C8[NH]C=CC8=C7	98.6	108	104	102	98	98.3	98.5	97.5	83.9	67	49	103	106	114	104	104	100	99.2	89.6	96.5	81.5	68.1	100	103	101	105	96.3	103	99	90.8	96.1	78.1	65.7
Cc1ccc(C)c(OCCCC(C)(C)C(=O)O)c1	87	92.4	90.8	95	101	97.9	93.2	102	106	98	92.1	90	86.9	84.5	90.7	91.1	92.9	89	91.7	84.1	92.4	97.1	81.2	82.9	84.3	92.6	84.5	87.7	85.5	86.6	88.8	88	90
CCOC\1=C(/C(=O)NC2=CC=C(OC3=C(Cl)C(=NC=C3)N)C(=C2)F)C(=O)N(\C=C1)C4=CC=C(F)C=C4	107	110	102	115	104	101	94.7	91.3	93.8	81.2	27.4	99.2	104	111	98.5	102	102	96.1	95.2	97.7	80.1	30.9	106	101	104	104	102	91	99.7	81.9	91.8	68.5	28.1
OCCN1CCN(CCCN2c3ccccc3Sc3ccc(C(F)(F)F)cc32)CC1	95.4	98.3	103	109	110	108	73.3	113	74.2	18.2	8.87	107	108	109	123	109	114	87.8	107	74.2	36.6	9.41	99.3	99.7	111	110	107	107	96.4	104	78.7	59.8	12.7
CCCC[N+]1(C)[C@@H]2CC(OC(=O)[C@H](CO)c3ccccc3)C[C@H]1[C@@H]1O[C@@H]12 (stereo partly drawn)	114	121	123	118	116	128	118	95.2	104	103	110	–	–	–	–	–	–	–	–	–	–	–	–	–	–	–	–	–	–	–	–	–	–
O=C1N\N=C(\C[C@@H]2CCN(C2)C(=O)C3CC3)N1C4=CC=C(C=C4)C5=CC=C6OC=CC6=C5	79.6	82	83.2	86.1	91.9	81.5	81	88.7	83.7	83.2	80.3	76.3	77	77.1	78.3	87.6	75.5	73.6	78.8	82.1	78.2	83.9	83.3	79.8	81.6	84	93.6	84.5	91.1	80.6	82.9	86.3	85.7
CCNC(=O)c1noc(-c2cc(C(C)C)c(O)cc2O)c1-c1ccc(CN2CCOCC2)cc1	103	111	112	113	109	52	53.9	50.1	52	45.8	44.2	111	116	115	117	97.4	41	43.5	39.6	47.2	40.1	35.8	96.9	112	108	115	100	42.1	43.8	41.1	44.9	39.4	37.3
Cc1ccc([S+](=O)([O-])NC(=O)NN2CC3CCCC3C2)cc1 (stereo not drawn)	107	110	110	114	112	106	100	80.8	66.4	44.5	22.7	110	108	103	102	113	108	97.7	70.5	57.3	34.7	20.1	107	109	116	106	112	102	93.4	72.4	51.4	36.3	23.9
CNC(=O)c1cc(Oc2ccc(NC(=O)Nc3ccc(Cl)c(C(F)(F)F)c3)c(F)c2)ccn1	86.4	89.8	93.8	91.3	92	95.4	87.8	91	88.3	81.4	67.7	85.4	92.6	87.8	97.8	86.2	95.6	94.2	83.6	87.1	86.8	65.5	91.7	89.9	90.5	98.6	94.1	91.5	84.9	90.3	84.7	89.1	73.5
CN1CCN(CC1)C/2=N/C3=CC=CC=C3NC4=C2C=C(C)S4	98	93.9	105	98.5	98.8	104	107	96.9	87.4	97.4	91.1	92.8	104	104	102	102	105	102	101	72.2	102	84.8	94.1	99.9	97.9	96.8	98.3	99.9	99.1	91.4	92.1	93	91.9
CO[C@H]1C[C@H]2OC[C@@]2(OC(C)=O)[C@H]3[C@H](OC(=O)C4=CC=CC=C4)[C@]5(O)C[C@H](OC(=O)[C@H](O)[C@@H](NC(=O)OC(C)(C)C)C6=CC=CC=C6)/C(=C(/[C@@H](OC)C(=O)[C@]13C)C5(C)C)C	78.2	87.6	29.3	28.4	19	18.9	18.8	20.1	12.1	13.4	7.21	69.9	81.6	70.8	30.4	11.6	15.3	15.2	15.9	10.5	10.6	10.8	73.7	71.1	67.9	34.5	28	27.7	24.2	26.1	20.2	21	11.9
O=C(O)CCc1ccc(NCc2cccc(Oc3ccccc3)c2)cc1	94.5	107	102	104	105	111	108	109	108	119	104	99.3	105	111	105	118	111	109	109	110	122	118	88.6	96.5	103	110	103	104	103	104	100	98.6	99.9
COc1cc([C@@H]2c3cc4c(cc3[C@@H](O)C3COC(=O)C32)OCO4)cc(OC)c1O (stereo partly drawn)	86.8	92.3	88.4	9.03	95.5	38.3	9.82	8.57	5.22	5.25	4.78	80.2	–	92.1	10.5	102	56.8	14.4	7.77	6.85	4.81	5.33	77.1	91.5	94.6	22.6	94.5	63.7	19	12.9	9.44	7.81	5.82
O=P1(NCCCl)OCCCN1CCCl (stereo not drawn)	84	94	88.4	91.6	92.9	88.1	95.1	93.9	91.8	62.5	94.2	82.8	76.7	81.5	85.6	88.8	86.7	87.9	86.1	92	93.2	66.7	77	77.2	75.3	78.1	84.8	82.7	85.9	85.2	87.2	87	79.8
